Data from patent US11208400B2, “Substituted 6-(1H-pyrazol-1-yl)pyrimidin-4-amine derivatives and uses thereof” (Bayer Aktiengesellschaft, priority 2016, dated 2021).

These compounds were tested against T1, human Npt2a (Homo sapiens, UniProt Q06495) (assay: Npt2a activity cell based assay, membrane potential dye, CHO T-REx hNpt2a cells). Conditions: doxycycline-induced, depolarization by sodium phosphate influx, average or median values if tested more than once.
T1 construct: expressed in transfected cells
T1 sequence (Q06495 1-639): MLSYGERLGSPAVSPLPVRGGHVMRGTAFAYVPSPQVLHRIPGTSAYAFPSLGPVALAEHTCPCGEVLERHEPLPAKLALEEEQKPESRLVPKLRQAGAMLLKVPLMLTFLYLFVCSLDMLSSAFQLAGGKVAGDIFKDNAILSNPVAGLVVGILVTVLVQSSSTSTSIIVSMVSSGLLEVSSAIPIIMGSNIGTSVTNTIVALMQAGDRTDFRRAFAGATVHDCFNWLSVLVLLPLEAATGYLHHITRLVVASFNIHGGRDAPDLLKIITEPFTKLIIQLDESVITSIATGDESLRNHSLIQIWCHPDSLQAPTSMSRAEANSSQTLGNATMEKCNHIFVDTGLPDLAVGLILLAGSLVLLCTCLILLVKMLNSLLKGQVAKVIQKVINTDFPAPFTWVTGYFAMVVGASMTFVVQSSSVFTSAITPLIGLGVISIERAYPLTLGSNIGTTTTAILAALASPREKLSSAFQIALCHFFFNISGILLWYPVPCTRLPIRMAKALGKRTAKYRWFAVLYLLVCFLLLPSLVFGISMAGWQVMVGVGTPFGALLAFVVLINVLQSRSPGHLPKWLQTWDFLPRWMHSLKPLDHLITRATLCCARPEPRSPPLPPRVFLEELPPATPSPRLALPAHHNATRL
Outline: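 Cells were doxycycline-induced CHO T-REx hNpt2a, dye-loaded and pretreated 5 min at RT with 1 nM–50 μM compound in Na-free pH 7.4 buffer. IC50 was fit to the post/pre-trigger fluorescence ratio.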

Q: With `CCOC(=O)c1c(C)nn(-c2cc(Nc3c(C)c(-c4ccc(C(F)(F)F)cc4)nn3C)ncn2)c1C` [Example 362, ethyl 1-[6-({1,4-dimethyl-3-[4-(trifluoromethyl)phenyl]-1H-pyrazol-5-yl}amino)pyrimidin-4-yl]-3,5-dimethyl-1H-pyrazole-4-carboxylate] as the compound, how does the IC50 read?
A: The IC50 was 220 nM.

Q: With `Cc1nn(-c2ccc(F)cc2)c(C)c1Nc1cc(-n2nc(C)c3ccccc32)ncn1` [Example 102, N-[1-(4-fluorophenyl)-3,5-dimethyl-1H-pyrazol-4-yl]-6-(3-methyl-1H-indazol-1-yl)pyrimidin-4-amine] as the compound, how does the IC50 read?
A: The IC50 was 7.3 nM.

Q: How did the IC50 turn out when `CCOC(=O)c1c(C)nn(-c2cc(Nc3nn(C)c(-c4ccc(F)cc4)c3Cl)ncn2)c1C` [Example 356, ethyl 1-(6-{[4-chloro-5-(4-fluorophenyl)-1-methyl-1H-pyrazol-3-yl]amino}pyrimidin-4-yl)-3,5-dimethyl-1H-pyrazole-4-carboxylate] was run?
A: Its IC50 is 2 nM.

Q: `CCc1c(Nc2cc(-n3nc(C)c4c3CCCC4=O)ncn2)nn(C)c1-c1ccc(F)cc1` [Example 133, 1-(6-{[4-ethyl-5-(4-fluorophenyl)-1-methyl-1H-pyrazol-3-yl]amino}pyrimidin-4-yl)-3-methyl-1,5,6,7-tetrahydro-4H-indazol-4-one] was tested. Which IC50 did it give?
A: The IC50 was 57 nM.

Q: `Cc1nn(-c2cc(Nc3n[nH]c(-c4ccc(F)cc4)c3C)ncn2)c(C)c1Cl` [Example 72, 6-(4-chloro-3,5-dimethyl-1H-pyrazol-1-yl)-N-[5-(4-fluorophenyl)-4-methyl-1H-pyrazol-3-yl]pyrimidin-4-amine] was tested. Which IC50 did it give?
A: Its IC50 is 15.4 nM.

Q: Which IC50 does the source give for `CCc1c(Nc2cc(-n3nc(C)c(CO)c3C)ncn2)nn(C)c1-c1ccc(F)cc1` [Example 58, [1-(6-{[4-ethyl-5-(4-fluorophenyl)-1-methyl-1H-pyrazol-3-yl]amino}pyrimidin-4-yl)-3,5-dimethyl-1H-pyrazol-4-yl]methanol] here?
A: The IC50 was 760 nM.

Q: `CCc1c(Nc2cc(-n3nc(C)c(C(=O)N4CCCC4C)c3C)ncn2)nn(C)c1-c1ccc(F)cc1` (single isomer, unassigned) [Example 107, [1-ent-(6-{[4-ethyl-5-(4-fluorophenyl)-1-methyl-1H-pyrazol-3-yl]amino}pyrimidin-4-yl)-3,5-dimethyl-1H-pyrazol-4-yl](2-methylpyrrolidin-1-yl)methanone] was tested. Which IC50 did it give?
A: The IC50 was 293 nM.

Q: With `Cc1cc(C)n(-c2cc(Nc3nn(CC(F)F)c(-c4ccc(F)cc4)c3Cl)ncn2)n1` [Example 132, N-[4-chloro-1-(2,2-difluoroethyl)-5-(4-fluorophenyl)-1H-pyrazol-3-yl]-6-(3,5-dimethyl-1H-pyrazol-1-yl)pyrimidin-4-amine] as the compound, how does the IC50 read?
A: The IC50 was 39 nM.

Q: For `Cc1cc(C)n(-c2cc(Nc3nn(C)c(-c4ccc(F)cc4)c3C)ncn2)n1` [Example 73, 6-(3,5-dimethyl-1H-pyrazol-1-yl)-N-[5-(4-fluorophenyl)-1,4-dimethyl-1H-pyrazol-3-yl]pyrimidin-4-amine], which IC50 is on record?
A: Its IC50 is 15.7 nM.

Q: For `COCc1c(C)nn(-c2cc(Nc3c(C)c(-c4ccc(F)cc4)nn3CC3CC3)ncn2)c1C` [Example 503, N-[1-(cyclopropylmethyl)-3-(4-fluorophenyl)-4-methyl-1H-pyrazol-5-yl]-6-[4-(methoxymethyl)-3,5-dimethyl-1H-pyrazol-1-yl]pyrimidin-4-amine], which IC50 is on record?
A: Its IC50 is 4 nM.

Q: With `Cc1cc(C(F)F)n(-c2cc(Nc3nn(C)c(-c4ccc(F)cc4)c3C3CC3)ncn2)n1` [Example 95, N-[4-cyclopropyl-5-(4-fluorophenyl)-1-methyl-1H-pyrazol-3-yl]-6-[5-(difluoromethyl)-3-methyl-1H-pyrazol-1-yl]pyrimidin-4-amine] as the compound, how does the IC50 read?
A: The IC50 was 63.5 nM.

Q: Which IC50 does the source give for `Cc1cc(C(C)(C)O)n(-c2cc(Nc3c(C)c(-c4ccc(OC(F)(F)F)cc4)nn3CC3CC3)ncn2)n1` [Example 291, 2-{1-[6-({1-(cyclopropylmethyl)-4-methyl-3-[4-(trifluoromethoxy)phenyl]-1H-pyrazol-5-yl}amino)pyrimidin-4-yl]-3-methyl-1H-pyrazol-5-yl}propan-2-ol] here?
A: The IC50 was 110 nM.

Q: How did the IC50 turn out when `Cc1nn(-c2cc(Nc3c(Cl)c(-c4ccc(F)cc4)nn3C)ncn2)c(C)c1C(C)(C)O` [Example 277, 2-[1-(6-{[4-chloro-3-(4-fluorophenyl)-1-methyl-1H-pyrazol-5-yl]amino}pyrimidin-4-yl)-3,5-dimethyl-1H-pyrazol-4-yl]propan-2-ol] was run?
A: The IC50 was 150 nM.

Q: With `Cc1nn(-c2ccc(F)cc2)c(C)c1Nc1cc(-n2nc3ccccc3c2C)ncn1` [Example 103, N-[1-(4-fluorophenyl)-3,5-dimethyl-1H-pyrazol-4-yl]-6-(3-methyl-2H-indazol-2-yl)pyrimidin-4-amine] as the compound, how does the IC50 read?
A: Its IC50 is 64 nM.

Q: For `Cc1ccc(-c2nn(CC3CC3)c(Nc3cc(-n4nc(C)c(Cl)c4C)ncn3)c2C)cn1` [Example 397, 6-(4-chloro-3,5-dimethyl-1H-pyrazol-1-yl)-N-[1-(cyclopropylmethyl)-4-methyl-3-(6-methylpyridin-3-yl)-1H-pyrazol-5-yl]pyrimidin-4-amine], which IC50 is on record?
A: The IC50 was 92 nM.

Q: `CCc1c(Nc2cc(-n3nc4c(c3C)CCCC4)ncn2)nn(C)c1-c1ccc(F)cc1` [Example 46, N-[4-ethyl-5-(4-fluorophenyl)-1-methyl-1H-pyrazol-3-yl]-6-(3-methyl-4,5,6,7-tetrahydro-2H-indazol-2-yl)pyrimidin-4-amine] was tested. Which IC50 did it give?
A: Its IC50 is 6.5 nM.

Q: For `COc1c(Nc2cc(-n3nc(C)c(C(O)C4CC4)c3C)ncn2)nn(C)c1-c1ccc(C#N)cc1` (racemic) [Example 459, (±)-4-{3-[(6-{4-[cyclopropyl(hydroxy)methyl]-3,5-dimethyl-1H-pyrazol-1-yl}pyrimidin-4-yl)amino]-4-methoxy-1-methyl-1H-pyrazol-5-yl}benzonitrile], which IC50 is on record?
A: The IC50 was 46 nM.

Q: For `Cc1c(-c2ccc(F)cc2)nn(CC2CC2)c1Nc1cc(-n2nc3c(c2C)C(C)(O)CC3)ncn1` (single isomer, unassigned) [Example 515, 2-(6-{[1-(cyclopropylmethyl)-3-(4-fluorophenyl)-4-methyl-1H-pyrazol-5-yl]amino}pyrimidin-4-yl)-3,4-dimethyl-2,4,5,6-tetrahydrocyclopenta[c]pyrazol-4-ol], which IC50 is on record?
A: The IC50 was 110 nM.

Q: How did the IC50 turn out when `CCc1c(-c2ccc(C#N)cc2)nn(CC2CC2)c1Nc1cc(-n2nc(C)c(Cl)c2C)ncn1` [Example 157, 4-[5-{[6-(4-chloro-3,5-dimethyl-1H-pyrazol-1-yl)pyrimidin-4-yl]amino}-1-(cyclopropylmethyl)-4-ethyl-1H-pyrazol-3-yl]benzonitrile] was run?
A: Its IC50 is 6 nM.

Q: `CCOC(=O)c1c(C)nn(-c2cc(Nc3c(C)c(-c4ccc(F)cn4)nn3CC3CC3)ncn2)c1C` [Example 438, ethyl 1-(6-{[1-(cyclopropylmethyl)-3-(5-fluoropyridin-2-yl)-4-methyl-1H-pyrazol-5-yl]amino}pyrimidin-4-yl)-3,5-dimethyl-1H-pyrazole-4-carboxylate] was tested. Which IC50 did it give?
A: Its IC50 is 16 nM.

Q: How did the IC50 turn out when `COc1c(C)nn(-c2cc(Nc3c(C)c(-c4ccc(C#N)cc4)nn3CC3CC3)ncn2)c1C` [Example 464, 4-[1-(cyclopropylmethyl)-5-{[6-(4-methoxy-3,5-dimethyl-1H-pyrazol-1-yl)pyrimidin-4-yl]amino}-4-methyl-1H-pyrazol-3-yl]benzonitrile] was run?
A: Its IC50 is 2 nM.

Q: For `Cc1nn(-c2cc(Nc3c(C)c(-c4ccc(F)cc4)nn3CC3CC3)ncn2)c(C)c1S(C)(=O)=O` [Example 423, N-[1-(cyclopropylmethyl)-3-(4-fluorophenyl)-4-methyl-1H-pyrazol-5-yl]-6-[3,5-dimethyl-4-(methylsulfonyl)-1H-pyrazol-1-yl]pyrimidin-4-amine], which IC50 is on record?
A: Its IC50 is 55 nM.

Q: `Cc1nn(-c2cc(Nc3c(Cl)c(-c4ccc(F)cc4)nn3C)ncn2)c(C(C)(C)O)c1Cl` [Example 278, 2-[4-chloro-1-(6-{[4-chloro-3-(4-fluorophenyl)-1-methyl-1H-pyrazol-5-yl]amino}pyrimidin-4-yl)-3-methyl-1H-pyrazol-5-yl]propan-2-ol] was tested. Which IC50 did it give?
A: The IC50 was 86 nM.

Q: `Cc1nn(-c2cc(Nc3c(C)c(-c4ccncc4)nn3CC3CC3)ncn2)c(C)c1Cl` [Example 351, 6-(4-chloro-3,5-dimethyl-1H-pyrazol-1-yl)-N-[1-(cyclopropylmethyl)-4-methyl-3-(pyridin-4-yl)-1H-pyrazol-5-yl]pyrimidin-4-amine] was tested. Which IC50 did it give?
A: The IC50 was 65 nM.

Q: For `Cc1cc(C)n(-c2cc(Nc3nn(CC(F)F)c(-c4ccc(C#N)cc4)c3C)ncn2)n1` [Example 252, 4-[1-(2,2-difluoroethyl)-3-{[6-(3,5-dimethyl-1H-pyrazol-1-yl)pyrimidin-4-yl]amino}-4-methyl-1H-pyrazol-5-yl]benzonitrile], which IC50 is on record?
A: The IC50 was 48 nM.

Q: `Cc1cc(C)n(-c2cc(Nc3c(C)c(-c4ccc(F)cn4)nn3C)ncn2)n1` [Example 467, 6-(3,5-dimethyl-1H-pyrazol-1-yl)-N-[3-(5-fluoropyridin-2-yl)-1,4-dimethyl-1H-pyrazol-5-yl]pyrimidin-4-amine] was tested. Which IC50 did it give?
A: Its IC50 is 69 nM.

Q: Which IC50 does the source give for `COc1c(C)nn(-c2cc(Nc3c(C)c(-c4ccc(C(F)(F)F)nc4)nn3CC3CC3)ncn2)c1C` [Example 535, N-{1-(cyclopropylmethyl)-4-methyl-3-[6-(trifluoromethyl)pyridin-3-yl]-1H-pyrazol-5-yl}-6-(4-methoxy-3,5-dimethyl-1H-pyrazol-1-yl)pyrimidin-4-amine] here?
A: The IC50 was 26 nM.
